Measured values published in article PMC7115586 (European Journal of Medicinal Chemistry, 2013).

What was measured:
[1] = tested on: a wide variety of DNA and RNA viruses; assay: All biological tests; assay type: cell-based; conditions: antiviral and cytostatic tests
[2] = Solubility in methanol or water; assay type: physicochemical; conditions: insufficient to measure the 13C NMR spectrum
[3] = tested on: feline herpes virus (FHV); assay type: cell-based; conditions: CRFK, read-out: EC50 against feline herpes virus

Molecule	solubility in methanol or water [2]	also measured
3-(4-{[3-Benzoyl-2,4-dioxopyrimidin-1-yl]methyl}-1H-1,2,3-triazol-1-yl)propylphosphonic acid [Compound 31e]		activity in all biological tests [1]: inactive
4-(4-{[6-Aminopurin-9-yl]methyl}-1H-1,2,3-triazol-1-yl)butylphosphonic acid [Compound 32b]	insufficient	
CCOP(=O)(CCCn1cc(Cn2ccc(=O)n(C(=O)c3ccccc3)c2=O)nn1)OCC [Compound 22m, Diethyl 3-(4-{[3-benzoyl-2,4-dioxopyrimidin-1-yl]methyl}-1H-1,2,3-triazol-1-yl)propylphosphonate]		EC50 [3]: > 200 µM
Cn1c(=O)c2c(nc(Cl)n2Cc2cn(CCCP(=O)(O)O)nn2)n(C)c1=O [Compound 31g, 3-{4-[(8-Chloro-1,3-dimethyl-2,6-dioxopurin-7-yl)methyl]-1H-1,2,3-triazol-1-yl}propylphosphonic acid]	insufficient	
Cc1cc2ncn(Cc3cn(CCCP(=O)(O)O)nn3)c2cc1C [Compound 31j, 3-{4-[(5,6-Dimethyl-benzimidazol-1-yl)methyl]-1H-1,2,3-triazol-1-yl}propylphosphonic acid]		activity in all biological tests [1]: inactive
Nc1ncnc2c1ncn2Cc1cn(CCCCP(=O)(O)O)nn1 [Compound 32a, 4-(4-{[6-Aminopurin-9-yl]methyl}-1H-1,2,3-triazol-1-yl)butylphosphonic acid]	insufficient	
Cn1c(=O)c2c(ncn2Cc2cn(CC(O)P(=O)(O)O)nn2)n(C)c1=O (stereo not shown) [Compound 33i, 3-{4-[(1,3-Dimethyl-2,6-dioxopurin-7-yl)methyl]-1H-1,2,3-triazol-1-yl}-1-hydroxyethyphosphonic acid]	insufficient	
